The text below walks through data of patent US20260226073A1 (AURIGENE ONCOLOGY LIMITED, priority 2023, published 2026).

SMILES strings stand for the structures.

The target of experiment [1] is T1, human recombinant CBL-b (human Biotin CBL-b recombinant protein a.a. 39-426) (Homo sapiens, UniProt Q13191).
T1 construct: human Biotin CBL-b recombinant protein a.a; 39-426; Biotin (biotinylated); made in house
In words: Biochemical assay for CBL-b inhibition (ligand displacement TR-FRET). To be noted: 50 nM CBL-b, 0.3 μM Bodipy FL-Probe, read-out: IC50 (CBL-b inhibition, group). Format: binding. In a few lines:
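Biotinylated CBL-b (a.a. 39-426, 50 nM final) pre-incubated with compound 60 min at RT in HEPES/NaCl/Triton/BSA/TCEP buffer, then Bodipy FL probe (0.3 μM final) 60 min, then terbium-streptavidin 60 min. TR-FRET read at 665/615 nm; IC50 and % max inhibition from sigmoidal fits.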
(Time-resolved FRET reads energy transfer from a long-lived donor to a nearby acceptor.)

In experiment [2] the test system is NFAT signaling pathway in Jurkat NFAT reporter cells. In words: Jurkat NFAT reporter assay. Particulars: Homo sapiens, 30 min with compound, then soluble anti-human CD3/CD28 antibody for 6 hours, luciferase readout, read-out: EC50 (Group). The class given is cell-based. Put shortly: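 Jurkat cells bearing an NFAT-RE-driven luciferase reporter (1×10^5 per well) preincubated with Cbl-b inhibitor for 30 min, then stimulated 6 h with soluble anti-CD3/CD28. Luminescence read with Bio-Glo; values are fold change over anti-CD3/CD28-stimulated cells without inhibitor.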

The test system of experiment [3] is human PBMCs stimulated with anti-CD3/CD28 Dynabeads. The experiment in a line: Human PBMC cytokine release assay (IL-2 by ELISA). The class given is cell-based. To be noted: Dynabeads CD3/CD28 48 hours, IL-2 ELISA, fold change over baseline, read-out: EC50 (human PBMC cytokine release, group). The procedure: Peripheral blood mononuclear cells (PBMC) were isolated from healthy human donor using Histopaque (Sigma). The Cbl-inhibitor was added to 1×10^5 cells per well and the plate was incubated for 30 minutes at 37° C. in 5% CO2 at different concentrations with a final DMSO concentration of <0.5%. Following incubation with the Cbl-b inhibitor, human PBMCs were stimulated with Dynabeads™ Human T-Activator CD3/CD28 (Thermo Fisher Scientific) for 48 hours. Cell free supernatant were collected after end of incubation and were analyzed for cytokine secretion, including IL-2 by ELISA (R&D Systems). Readouts were reported as fold change over baseline. Here, baseline was the measurement obtained from human PBMCs stimulated with Dynabeads™ Human T-Activator CD3/CD28, where the cells were not incubated with a Cbl-b inhibitor.

T1 sequence (Q13191 39-426): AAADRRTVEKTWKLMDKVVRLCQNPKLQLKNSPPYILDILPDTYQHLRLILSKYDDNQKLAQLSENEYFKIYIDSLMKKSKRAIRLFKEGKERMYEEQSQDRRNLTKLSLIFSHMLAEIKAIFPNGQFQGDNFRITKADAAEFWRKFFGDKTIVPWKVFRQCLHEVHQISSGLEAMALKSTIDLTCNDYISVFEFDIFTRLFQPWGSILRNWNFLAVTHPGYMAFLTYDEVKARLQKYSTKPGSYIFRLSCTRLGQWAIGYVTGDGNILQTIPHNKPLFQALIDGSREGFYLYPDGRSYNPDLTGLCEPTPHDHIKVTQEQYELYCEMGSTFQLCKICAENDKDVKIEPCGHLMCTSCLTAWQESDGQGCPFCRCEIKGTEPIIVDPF

`C[C@@H]1C[C@H](C)CN(Cc2cc(N3Cc4ccc(C5(Cc6nncn6C)COC5)cc4C3=O)nc(C(F)(F)F)c2)C1` [Compound 39, 2-(4-(((3S,5R)-3,5-Dimethylpiperidin-1-yl)methyl)-6-(trifluoromethyl)pyridin-2-yl)-6-(3-((4-methyl-4H-1,2,4-triazol-3-yl)methyl)oxetan-3-yl)isoindolin-1-one]: in experiment [1], the half-inhibitory concentration (IC50) (in general, the concentration at which inhibition is half-maximal) is below 80 nM. For the same molecule, the EC50 in experiment [2] was below 300 nM; in experiment [3] it was below 5 µM.
Regarding `Cn1cnnc1CC1(c2ccc3c(c2)C(=O)N(c2cc(CNCC4CC4)cc(Cl)n2)C3)COC1` [Compound 57, 2-(6-Chloro-4-(((cyclopropylmethyl)amino)methyl)pyridin-2-yl)-6-(3-((4-methyl-4H-1,2,4-triazol-3-yl)methyl)oxetan-3-yl)isoindolin-1-one], the 50% inhibitory concentration (IC50) in experiment [1] is below 80 nM. Moreover, the EC50 in experiment [2] is below 300 nM; in experiment [3] it was below 5 µM.
On the same counts, the results for `Cc1cc(CN2CCC[C@H](C)C2)cc(N2Cc3ccc(C4(Cc5nncn5C)COC4)cc3C2=O)c1` [Compound 4, (S)-6-(3-((4-Methyl-4H-1,2,4-triazol-3-yl)methyl)oxetan-3-yl)-2-(3-methyl-5-((3-methylpiperidin-1-yl)methyl)phenyl)isoindolin-1-one] are below 80 nM, below 300 nM and below 5 µM.
Turning to `Cn1cnnc1CC1(c2ccc3c(c2)C(=O)N(c2cc(CNCCC(F)(F)F)cc(C(F)(F)F)n2)C3)COC1` [Compound 25, 6-(3-((4-Methyl-4H-1,2,4-triazol-3-yl)methyl)oxetan-3-yl)-2-(6-(trifluoro-methyl)-4-(((3,3,3-trifluoropropyl)amino)methyl)pyridin-2-yl)isoindolin-1-one], the IC50 in experiment [1] was below 80 nM. Further, the EC50 in experiment [2] was 300 to 1000 nM; in experiment [3], below 5 µM.
As to `CCc1cc(CN2CCC[C@H](C)C2)cc(N2Cc3ccc(C4(Cc5nncn5C)COC4)cc3C2=O)c1` [Compound 11, (S)-2-(3-Ethyl-5-((3-methylpiperidin-1-yl)methyl)phenyl)-6-(3-((4-methyl-4H-1,2,4-triazol-3-yl)methyl)oxetan-3-yl)isoindolin-1-one], the IC50 in experiment [1] fell in the range of 80 to 300 nM. Besides, the EC50 was 300 to 1000 nM in experiment [2] and below 5 µM in experiment [3].
On the same counts, the results for `Cn1cnnc1CC1(c2ccc3c(c2)C(=O)N(c2cc(CNCC4CC4)cc(C(F)(F)F)n2)C3)COC1` [Compound 80, 2-(4-(((Cyclopropylmethyl)amino)methyl)-6-(trifluoromethyl)pyridin-2-yl)-6-(3-((4-methyl-4H-1,2,4-triazol-3-yl)methyl)oxetan-3-yl)isoindolin-1-one] are below 80 nM, below 300 nM and below 5 µM.
For `C[C@H]1CCCN(Cc2cc(Cl)cc(N3Cc4ccc(C5(Cc6nncn6C)COC5)cc4C3=O)c2)C1` [Compound 6, (S)-2-(3-Chloro-5-((3-methylpiperidin-1-yl)methyl)phenyl)-6-(3-((4-methyl-4H-1,2,4-triazol-3-yl)methyl)oxetan-3-yl)isoindolin-1-one], in that order: below 80 nM, below 300 nM and below 5 µM.
Turning to `Cn1cnnc1CC1(c2ccc3c(c2)C(=O)N(c2cc(CN4CC5CCCC5C4)cc(C(F)(F)F)n2)C3)COC1` (centres unmarked) [Compound 35, 2-(4-((Hexahydrocyclopenta[c]pyrrol-2(1H)-yl)methyl)-6-(trifluoromethyl)pyri-din-2-yl)-6-(3-((4-methyl-4H-1,2,4-triazol-3-yl)methyl)oxetan-3-yl)isoindolin-1-one], the IC50 in experiment [1] is 80 to 300 nM. Moreover, the EC50 is 300 to 1000 nM in experiment [2] and below 5 µM in experiment [3].
Take `C[C@H]1CCCN(Cc2cc(N3Cc4ccc(C5(Cc6nncn6C)COC5)cc4C3=O)cc(C(F)(F)F)c2)C1` [Compound 1, (S)-6-(3-((4-Methyl-4H-1,2,4-triazol-3-yl)methyl)oxetan-3-yl)-2-(3-((3-methylpiperidin-1-yl)methyl)-5-(trifluoromethyl)phenyl)isoindolin-1-one]: in experiment [1], the half-maximal inhibitory concentration (IC50) fell in the range of 80 to 300 nM. The EC50 in experiment [2] is below 300 nM; in experiment [3], below 5 µM.
With `C[C@H]1CCCN(Cc2cc(Cl)nc(N3Cc4ccc(C5(Cc6nncn6C)COC5)cc4C3=O)c2)C1` [Compound 40, (S)-2-(6-Chloro-4-((3-methylpiperidin-1-yl)methyl)pyridin-2-yl)-6-(3-((4-methyl-4H-1,2,4-triazol-3-yl)methyl)oxetan-3-yl)isoindolin-1-one], the concentration for half-maximal inhibition (IC50) in experiment [1] was below 80 nM. Also, the EC50 is below 300 nM in experiment [2] and below 5 µM in experiment [3].
For `Cc1cc(CN2C[C@@H](C)C[C@H](C)C2)cc(N2Cc3ccc(C4(Cc5nncn5C)COC4)cc3C2=O)c1` [Compound 59, 2-(3-(((3S,5S)-3,5-Dimethylpiperidin-1-yl)methyl)-5-methylphenyl)-6-(3-((4-methyl-4H-1,2,4-triazol-3-yl)methyl)oxetan-3-yl)isoindolin-1-one], in that order: 80 to 300 nM, 300 to 1000 nM and below 5 µM.
As for `C[C@@H]1C[C@H](C)CN(Cc2cc(Cl)nc(N3Cc4ccc(C5(Cc6nncn6C)COC5)cc4C3=O)c2)C1` [Compound 52, 2-(6-Chloro-4-(((3S,5R)-3,5-dimethylpiperidin-1-yl)methyl)pyridin-2-yl)-6-(3-((4-methyl-4H-1,2,4-triazol-3-yl)methyl)oxetan-3-yl)isoindolin-1-one], the IC50 in experiment [1] was below 80 nM. In addition, the EC50 in experiment [2] was below 300 nM; in experiment [3], below 5 µM.
On the same counts, the results for `C[C@H]1CCCN(Cc2cc(N3Cc4ccc(C5(Cc6nncn6C)COC5)cc4C3=O)nc(C(F)(F)F)c2)C1` [Compound 2] are below 80 nM, below 300 nM and below 5 µM.
In the case of `Cc1cc(C(C)N2CCC[C@H](C)C2)cc(N2Cc3ccc(C4(Cc5nncn5C)COC4)cc3C2=O)c1` (stereo partly drawn) [Compound 12, 6-(3-((4-Methyl-4H-1,2,4-triazol-3-yl)methyl)oxetan-3-yl)-2-(3-methyl-5-(1-((S)-3-methylpiperidin-1-yl)ethyl)phenyl)isoindolin-1-one], in experiment [1], the half-inhibitory concentration (IC50) was below 80 nM. Also, the EC50 in experiment [2] is 300 to 1000 nM; in experiment [3] it was below 5 µM.
For `Cc1cc(CN2C[C@H](C)C[C@H](C)C2)cc(N2Cc3ccc(C4(Cc5nncn5C)COC4)cc3C2=O)n1` [Compound 78, 2-(4-(((3S,5R)-3,5-Dimethylpiperidin-1-yl)methyl)-6-methylpyridin-2-yl)-6-(3-((4-methyl-4H-1,2,4-triazol-3-yl)methyl)oxetan-3-yl)isoindolin-1-one], in that order: below 80 nM, below 300 nM and below 5 µM.
Regarding `Cn1cnnc1CC1(c2ccc3c(c2)C(=O)N(c2cc(CNCC4CC(F)(F)C4)cc(Cl)n2)C3)CC(C#N)C1` (centres unmarked) [Compound 227, 3-(2-(6-Chloro-4-((((3,3-difluorocyclobutyl)methyl)amino)methyl)pyridin-2-yl)-3-oxoisoindolin-5-yl)-3-((4-methyl-4H-1,2,4-triazol-3-yl)methyl)cyclobutane-1-carbo-nitrile], the 50% inhibitory concentration (IC50) in experiment [1] is below 80 nM. For the same molecule, in experiment [2], the EC50 lay within 300 to 1000 nM.
